Reference: US10683318B2, “Scalable synthesis of reduced toxicity derivative of amphotericin B” (priority 2014, dated 2020)
Converted amounts (≈) assume the structure as drawn. Where two headings read alike, the source gives them in different places.

Assays:
healthy mice = test: Acute toxicity, single intravenous administration to healthy mice; assay type: in vivo; conditions: single i.v.
Protocol: In a separate experiment, acute toxicity was determined by single intravenous administration of AmB or C2′epiAmB to healthy mice, followed by monitoring for lethality.

[1] = test system: primary human renal proximal tubule epithelial cells; test: WST-8 cell proliferation assay on primary RPTECs; assay type: cell-based; conditions: concentration causing 90% loss of cell viability of primary human RPTECs, 24 hours
Protocol: Primary human renal proximal tubule epithelial cells (RPTECs) were purchased from ATCC (Manassas, Va.) and immediately cultured upon receipt. Complete growth media was prepared using renal epithelial cell basal medium (ATCC, PCS-400-030), renal epithelial cell growth kit (ATCC, PCS-400-040), and penicillin-streptomycin (10 units/mL and 10 μg/mL). Complete media was stored at 4° C. in the dark and used within 28 days. Primary RPTECs were grown in CO2 incubator at 37° C. with an atmosphere of 95% air/5% CO2.
WST-8 cell proliferation assay kit (10010199) was purchased from Cayman Chemical Company (Ann Arbor, Mich.) and stored at −20° C. and used within 6 months of receipt. WST-8 reagent and electron mediator solution were thawed and mixed to prepare the WST-8 reagent solution. The solution was stored at −20° C. and used within one week.
A suspension of primary RPTECs in complete growth media was brought to a concentration of 1×10^5 cells/mL. A 96-well plate was seeded with 99 μL of the cell suspension and incubated at 37° C. with an atmosphere of 95% air/5% CO2 for 3 hours. Positive and negative controls were prepared by seeding with 100 μL of the cell suspension or 100 μL of the complete media. […] Following incubation, the 96-well plate was mixed in a shaking incubator at 200 rpm for 1 minute and absorbances were read at 450 nm using a Biotek H1 Synergy Hybrid Reader (Winooski, Vt.). […]

human red blood cells [2] = test: Minimum hemolysis concentration (MHC) assay; conditions: concentration causing 90% hemolysis of human red blood cells, 37° C., 2 hours
Protocol: (§3) Whole human blood (sodium heparin) was purchased from Bioreclamation LLC (Westbury, N.Y.) and stored at 4° C. and used within two days of receipt. To a 2.0 mL Eppendorf tube, 1 mL of whole human blood was added and centrifuged at 10,000 g for 2 minutes. The supernatant was removed and the erythrocyte pellet was washed with 1 mL of sterile saline and centrifuged at 10,000 g for 2 minutes. The saline wash was repeated for a total of three washes. The erythrocyte pellet was suspended in 1 mL of RBC buffer (10 mM NaH2PO4, 150 mM NaCl, 1 mM MgCl2, pH 7.4) to form the erythrocyte stock suspension.
(§4) Compounds were prepared as 1.03 min (AmB) or 12.8 min (C2′epiAmB) stock solutions in DMSO and serially diluted to the following concentrations with DMSO: 7689, 5126, 2563, 2050, 1538, 1025, 769, 513, 384, 256, 205, 154, 103, 77, 51, 26 μM. […] Positive and negative controls were prepared by adding 1 μL of DMSO to MilliQ water or RBC buffer, respectively to 0.2 mL PCR tube. To each PCR tube, 0.63 μL of the erythrocyte stock suspension was added and mixed by inversion. The samples were incubated at 37° C. for 2 hours. The samples were mixed by inversion and centrifuged at 10,000 g for 2 minutes. […] Absorbances were read at 540 nm using a Biotek H1 Synergy Hybrid Reader (Winooski, Vt.). […]
(§5) Percent hemolysis was determined according to the following equation: […]

[3] = Isothermal titration calorimetry with POPC LUVs containing 10% ergosterol; assay type: binding; conditions: ITC; for Ergosterol binding (net exotherm vs sterol-free LUVs): result in words
Protocol: (§1) In an optimized isothermal titration calorimetry (ITC)-based assay, an aqueous solution of AmB was titrated with a suspension of large unilamellar vesicles (LUVs) comprised of only 1-palmitoyl-2-oleoyl-sn-glycero-3-phosphocholine (POPC), and the net exotherm was recorded. The titration was repeated using POPC LUVs containing 10% ergosterol. […] The titration was repeated using C2′epiAmB. […] The ITC assay was also conducted with cholesterol in place of ergosterol.
(§2) Experiments were performed using a NanoITC isothermal titration calorimeter (TA Instruments, Wilmington, Del.). Solutions of the compounds to be tested were prepared by diluting a 60.0 mM stock solution of the compound in DMSO to 600 μM with K buffer (5.0 mM HEPES/KHEPES, pH=7.4). The final DMSO concentration in the solution was 1% v/v. Large unilamellar vesicles comprised of only 1-palmitoyl-2-oleoyl-sn-glycero-3-phosphocholine (POPC LUVs) were prepared and phosphorus and ergosterol content was quantified as described below. The LUV solutions were diluted with buffer and DMSO to give a final phospholipid concentration of 12.0 mM in a 1% DMSO/K buffer solution. Immediately prior to use, all solutions were incubated at 37° C. for 30 minutes and degassed under vacuum at 37° C. for 10 minutes. The reference cell of the instrument (volume=0.190 mL) was filled with a solution of 1% v/v DMSO/K buffer.
Palmitoyl oleoyl phosphatidylcholine (POPC) was obtained as a 20 mg/mL solution in CHCl3 from Avanti Polar Lipids (Alabaster, Ala.) and was stored at −20° C. under an atmosphere of dry argon and used within 1 month. A 4 mg/mL solution of ergosterol in CHCl3 was prepared monthly and stored at 4° C. under an atmosphere of dry argon. Prior to preparing a lipid film, the solutions were warmed to ambient temperature to prevent condensation from contaminating the solutions. A 13×100 mm test tube was charged with 800 μL POPC and 230 μL of the ergosterol solution. For cholesterol-containing liposomes, a 13×100 mm test tube was charged with 800 μL POPC and 224 μL of the […] solution. […]

[4] = Isothermal titration calorimetry with POPC LUVs containing 10% cholesterol; assay type: binding; conditions: ITC
Protocol: as §1
as §2, with “buffer. […]” for “buffer.”

[5] = Isothermal titration calorimetry with sterol-free POPC LUVs; assay type: binding; conditions: ITC, no sterol (POPC LUVs), 600 μM compound, 25° C.
Protocol: as §1
as §2, with “buffer. […]” for “buffer.”

C. albicans [6] = test: Mouse model of disseminated candidiasis; assay type: in vivo; conditions: neutropenic mice, single i.p. 16 mg/kg 2 hours post infection, kidneys at 24 hours post infection
Protocol: The antifungal efficacy of C2′epiAmB was tested in a mouse model of disseminated candidiasis. In this experiment neutropenic mice were infected with C. albicans via their tail veins, and then 2 hours post infection the mice were treated with a single intraperitoneal injection of 16 mg/kg AmB or C2′epiAmB. Then at 24 hours post infection the mice were sacrificed, and the fungal burden present in their kidneys was quantified.

human red blood cells [7] = conditions: 2 h, pH 7.4
Protocol: as §3, §4, §5

S. cerevisiae = test: Broth microdilution MIC assay, S. cerevisiae; assay type: cell-based; conditions: Saccharomyces cerevisiae, 30° C., 24 hours, no visible growth
Protocol: Liquid cultures were incubated at 30° C. on a rotary shaker and solid cultures were maintained at 30° C. in an incubator.
(§6) The protocol for the broth microdilution assay was adapted from the Clinical and Laboratory Standards Institute document M27-A2. […] 50 mL of YPD media was inoculated and incubated overnight at either 30° C. (S. cerevisiae) or 37° C. (C. albicans) in a shaker incubator. The cell suspension was then diluted with YPD to an OD600 of 0.10 (˜5×10^5 cfu/mL) as measured by a Shimadzu (Kyoto, Japan) PharmaSpec UV-1700 UV/Vis spectrophotometer. The solution was diluted 10-fold with YPD, and 195 μL aliquots of the dilute cell suspension were added to sterile Falcon (Franklin Lakes, N.J.) Microtest 96-well plates in triplicate. Compounds may be prepared as 400 μM stock solutions in DMSO and serially diluted to the following concentrations with DMSO: 1600, 1200, 800, 400, 320, 240, 200, 160, 120, 80, 40, 20, 10 and 5 μM. 5 μL aliquots of each solution were added to the 96-well plate in triplicate, with each column representing a different concentration of the test compound. […] This 40-fold dilution gave the following final concentrations: 50, 40, 30, 20, 10, 8, 6, 4, 1, 0.5, 0.25 and 0.125 μM. The plates were covered and incubated at 30° C. (S. cerevisiae) or 37° C. (C. albicans) for 24 hours prior to analysis. […]

C. albicans [8] = test: Broth microdilution MIC assay, C. albicans; assay type: cell-based; conditions: Candida albicans, 37° C., 24 hours, no visible growth
Protocol: C. albicans was cultured in a similar manner to S. cerevisiae except both liquid and solid cultures were incubated at 37° C.
as §6

Row | SMILES | Lethality (healthy mice; 4 mg/kg) | minimum toxic concentration (MTC) [1] | minimum hemolytic concentration (MHC) (human red blood cells [2]) [µM] | Ergosterol binding (net exotherm vs sterol-free LUVs) [3] | Lethality (healthy mice; up to 16 mg/kg) | Total exotherm ([4]; POPC LUVs with 10% cholesterol, 600 μM compound, 25° C.) [µcal] | Cholesterol binding ([4]; result in words) | Total exotherm [5] [µcal] | Reduction of fungal burden relative to AmB (C. albicans [6]) [log units] | Reduction of fungal burden in kidneys compared with AmB (C. albicans [6]; result in words) | minimum hemolytic concentration (MHC) (human red blood cells [7]) [µM] | MIC (S. cerevisiae) [µM] | MIC (C. albicans [8]) [µM] | Total exotherm ([3]; POPC LUVs with 10% ergosterol, 600 μM compound, 25° C.) [µcal]
1 | C[C@@H]1[C@H](O)[C@@H](C)/C=C/C=C/C=C/C=C/C=C/C=C/C=C/[C@H](O[C@@H]2O[C@H](C)[C@@H](O)[C@H](N)[C@@H]2O)C[C@@H]2O[C@](O)(C[C@@H](O)C[C@@H](O)[C@H](O)CC[C@@H](O)C[C@@H](O)CC(=O)O[C@H]1C)C[C@H](O)[C@H]2C(=O)O [AmB, amphotericin B] | died within seconds | 2.4 µM | 8.5 | significant increase in net exotherm | – | – | – | – | – | – | – | – | – | –
2 | C[C@@H]1[C@H](O)[C@@H](C)/C=C/C=C/C=C/C=C/C=C/C=C/C=C/[C@H](O[C@@H]2O[C@H](C)[C@@H](O)[C@H](N)[C@H]2O)C[C@@H]2O[C@](O)(C[C@@H](O)C[C@@H](O)[C@H](O)CC[C@@H](O)C[C@@H](O)CC(=O)O[C@H]1C)C[C@H](O)[C@H]2C(=O)O [C2′epiAmB] | – | no evidence of toxicity up to the limits of solubility | – | binds to ergosterol | no deaths observed | -6.43 ± 2.80 | not found to bind to cholesterol | -6.70 ± 0.11 | 0.5 | more effective than AmB | > 500 | 2 (≈ 1.85 µg/mL) | 2 (≈ 1.85 µg/mL) | -15.24 ± 1.66
